From patent publication US8148347B2, “Inhibition of interaction of PSD93 and PSDS95 with nNOS and NMDA receptors” (The Johns Hopkins University, priority 2000, dated 2012)

Key:
Assay type in all cases: in vivo, rat
Male Sprague-Dawley rats [1] = assay: formalin-induced pain behaviors (flinches and shakes); conditions: for reduction of the number of flinches and shakes evoked by formalin: 50 μg intrathecal
Method: All of the experiments were carried out with the approval of the Animal Care Committee at the Johns Hopkins University. Thirty-eight male Sprague-Dawley rats (250-300 g, Hilltop Laboratory Animals, Scottsdale, Pa., USA) were implanted with an intrathecal PE-10 catheter at the rostral level of the spinal cord lumbar enlargement according to the method described by Yaksh and Rudy. After 4 to 7 days of recovery, they were intrathecally injected with one of the following agents every 24 hours for 4 consecutive days: saline (10 μl, n=6), PSD-95 antisense oligodeoxynucleotide (ODN) (12.5 μg/10 μl, n=6; 25 μg/10 μl, n=6; 50 μg/10 μl, n=6), sense ODN (50 μg/10 μl, n=5) or missense ODN (50 μg/10 μl, n=9). On the fifth day, formalin (4%, 100 μl) was injected into one of the hindpaws. The number of flinches and shakes of the injected paw was assessed for 1 hour. The observational session was divided into phasic (0-10 min) and tonic (10-60 min) periods. Rats were sacrificed two hours after formalin injection and their lumbar spinal cords were harvested for c-fos immunohistochemistry.

Male Sprague-Dawley rats [2] = assay: measurement of isoflurane MAC (tail clamp); conditions: for MAC (isoflurane): mean ± SD
Method: The ODNs were dissolved in saline before administration. As described in the previous work,^49 the rats were injected intrathecally with saline (10 μl) (control), antisense ODNs (12.5, 25, 50 μg/10 μl), sense ODN (50 μg/10 μl) and missense ODN (50 μg/10 μl), respectively, followed by an injection of 10 μl of saline to flush the catheter, every 24 h for 4 days.
(§1) On the fifth day after saline or ODNs injection, each rat was placed in a clear plastic cone and anesthetized with 5% isoflurane in oxygen for three to five minutes. After tracheostomy, the trachea of each animal was intubated with a 16-gauge polyethylene catheter. The inspired isoflurane concentration was reduced to 2%, and the animals breathed spontaneously until cannulation of a carotid artery and a jugular vein with PE-50 tubing was accomplished. The isoflurane concentration was decreased further to 1.5%, and ventilation was controlled by a Harvard Animal Respirator (Harvard Apparatus, South Natick, Mass.) adjusted according to the measurement of arterial blood gases to maintain normal partial pressure of oxygen (PO2=91-94 mmHg), partial pressure of carbon dioxide (PCO2=33-41 mmHg) and pH (7.4-7.44). Electrocardiography and systolic and diastolic blood pressure were monitored using a Grass Polygraph (Astroumed Grass, Quincy, Mass.) and Gould Pressure Transducer (Gould, Cleveland, Ohio). Rectal temperature was maintained between 36.5 and 37.5° C. by use of a heating blanket and warming lights.
A PE-10 catheter was introduced through and beyond the endotracheal tube until obstruction to passage was met and then withdrawn 1 to 2 mm. For isoflurane MAC measurement, the PE-10 catheter was connected to a parameter airway gas monitor (Datex-Engstrom, Inc., Tewksbury, Mass.). After stabilizing about 30 minutes, MAC was measured according to the methods described previously^34 using a long hemostat (8-inch Rochester Dean Hemostatic Forceps) clamped to the first ratchet lock on the tail for 1 min. The tail was always stimulated proximal to a previous test site. Gross movement of the head, extremities, or body was taken as a positive test result, whereas grimacing, swallowing, chewing, or tail flick were considered negative results. The isoflurane concentration was reduced in decrements of 0.12 to 0.15% until the negative response became positive, with 12-15 min equilibration allowed after changes in concentration.^50,51 The MAC was considered to be the concentration midway between the highest concentration that permitted movement in response to the stimulus and the lowest concentration that prevented movement. Finally, intrathecal PE-10 catheter position from each animal was confirmed.
(§2) In some saline-treated rats, after initial baseline MAC determination, NMDA at the dose of 1.25 μg^38 or saline was injected intrathecally in a volume of 10 μl saline, followed by an injection of 10 μl saline to flush the catheter. Fresh NMDA solution was prepared for each experiment. […] At this isoflurane concentration, 10 min after the intrathecal injection of NMDA, the animals were tested again for reactivity to tail clamp. The concentration of isoflurane was increased, and response to tail clamp was checked every 12-15 min thereafter until a negative response was achieved. In some antisense ODN (50 μg)-treated rats, after initial MAC determination, NMDA or saline was also administered intrathecally. The MAC for isoflurane was again determined following the aforementioned procedures.

Male Sprague-Dawley rats [3] = assay: tests of locomotor function (placing, grasping, righting reflex) and general behaviors; conditions: mean (SD)
Method: The effects of ODNs on locomotor function were examined using the following methods.^52 The animals were organized randomly into six groups: control (saline); 12.5 antisense ODN; 25 μg antisense ODN; 50 μg antisense ODN; 50 μg sense ODN; 50 μg missense ODN. The rats were pretreated with ODNs or saline in the manner described above. On the fifth day, 10 μl of saline was injected intrathecally for each rat. In some saline or antisense ODN (50 μg)-treated rats, fresh NMDA solution (1.25 μg/10 μl) was injected intrathecally. The following tests were performed with the experimenter blind to which group was treated with the agents: (1) Placing reflex: The rat was held with the hind limbs slightly lower than the forelimbs, and the dorsal surfaces of the hind paws were brought into contact with the edge of a table. The experimenter recorded whether the hind paws were placed on the table surface reflexively; (2) Grasping reflex: The rat was placed on a wire grid and the experimenter recorded whether the hind paws grasped the wire on contact; (3) Righting reflex: The rat was placed on its back on a flat surface and the experimenter noted whether it immediately assumed the normal upright position. […] In addition, the rat general behaviors including spontaneous activity were observed.

Male Sprague-Dawley rats [4] = assay: blood pressure and heart rate during isoflurane anesthesia
Source text: as §1, §2

[5] = 50 μg intrathecal every 24 h for 4 days
[6] = 50 μg, count of normal reflexes in five trials
[7] = pretreated with 50 μg antisense ODN, intrathecal NMDA 1.25 μg
[8] = 12.5 μg, count of normal reflexes in five trials
[9] = 25 μg, count of normal reflexes in five trials
[10] = 50 μg AS + 1.25 μg NMDA, five trials

5′-AAGCCCTTGTTCCCATTT-3′ (DNA, backbone and methylation of C not given here; listed as Rattus rattus) [MS, missense OND control, reference compound]
difference in the number of flinches and shakes vs saline-treated group (Male Sprague-Dawley rats [1]; 50 μg/10 μl, either period): did not show any significant difference | change of the value for isoflurane MAC compared to the control group (Male Sprague-Dawley rats [2]; 50 μg intrathecal): did not significantly change | MAC (isoflurane) (Male Sprague-Dawley rats [2]; [5]): 1.13 ± 0.15 | Grasping (Male Sprague-Dawley rats [3]; [6]): 5 (0) | Placing (Male Sprague-Dawley rats [3]; [6]): 5 (0) | Righting (Male Sprague-Dawley rats [3]; [6]): 5 (0) | BP Diastolic (Male Sprague-Dawley rats [4]; 50 μg, before the tail clamp): 105.75 ± 11.40 mmHg | BP Systolic (Male Sprague-Dawley rats [4]; 50 μg, before the tail clamp): 121.33 ± 15.84 mmHg | Heart rate (Male Sprague-Dawley rats [4]; 50 μg, before the tail clamp): 524.70 ± 44.90 beats/min

5′-TGTGATCTCCTCATACTC-3′ (DNA, backbone and methylation of C not given here; listed as Rattus rattus) [antisense oligonucletide corresponding to the PDZ domain nucleotides 241 to 258 of rat PSD-95/SAP90 mRNA]
reduction of the number of flinches and shakes evoked by formalin (Male Sprague-Dawley rats [1]; phasic period (0-10 min)): but not in the phasic period | reduction of the number of flinches and shakes evoked by formalin (Male Sprague-Dawley rats [1]; tonic period (10-60 min)): 59% | changes in the number of flinches and shakes vs saline-treated group (Male Sprague-Dawley rats [1]; 12.5 and 25 μg, phasic and tonic periods): failed to produce significant changes | decrease from isoflurane control MAC (Male Sprague-Dawley rats [2]; 12.5 μg): 1% | MAC (isoflurane) (Male Sprague-Dawley rats [2]; 12.5 μg intrathecal every 24 h for 4 days): 1.15 ± 0.18 | decrease from isoflurane control MAC (Male Sprague-Dawley rats [2]; 25 μg): 18% | MAC (isoflurane) (Male Sprague-Dawley rats [2]; 25 μg intrathecal every 24 h for 4 days): 0.98 ± 0.14 | decrease from isoflurane control MAC (Male Sprague-Dawley rats [2]; 50 μg): 44% | MAC (isoflurane) (Male Sprague-Dawley rats [2]; [5]): 0.72 ± 0.05 | increase in isoflurane MAC after NMDA compared to 50 μg antisense ODN alone (Male Sprague-Dawley rats [2]; [7]): did not result in a significant increase | Grasping (Male Sprague-Dawley rats [3]; [8]): 5 (0) | Placing (Male Sprague-Dawley rats [3]; [8]): 5 (0) | Righting (Male Sprague-Dawley rats [3]; [8]): 5 (0) | Grasping (Male Sprague-Dawley rats [3]; [9]): 5 (0) | Placing (Male Sprague-Dawley rats [3]; [9]): 5 (0) | Righting (Male Sprague-Dawley rats [3]; [9]): 5 (0) | Grasping (Male Sprague-Dawley rats [3]; [10]): 4.83 (0.41) | Placing (Male Sprague-Dawley rats [3]; [10]): 4.83 (0.41) | Righting (Male Sprague-Dawley rats [3]; [10]): 4.83 (0.41) | Grasping (Male Sprague-Dawley rats [3]; [6]): 4.67 (0.52) | Placing (Male Sprague-Dawley rats [3]; [6]): 4.83 (0.41) | Righting (Male Sprague-Dawley rats [3]; [6]): 4.83 (0.41) | BP Diastolic (Male Sprague-Dawley rats [4]; 12.5 μg, before the tail clamp): 112.58 ± 7.14 mmHg | BP Systolic (Male Sprague-Dawley rats [4]; 12.5 μg, before the tail clamp): 127.58 ± 11.72 mmHg | Heart rate (Male Sprague-Dawley rats [4]; 12.5 μg, before the tail clamp): 534.80 ± 29.13 beats/min | BP Diastolic (Male Sprague-Dawley rats [4]; 25 μg, before the tail clamp): 105.83 ± 7.89 mmHg | BP Systolic (Male Sprague-Dawley rats [4]; 25 μg, before the tail clamp): 122.75 ± 10.81 mmHg | Heart rate (Male Sprague-Dawley rats [4]; 25 μg, before the tail clamp): 541.20 ± 16.70 beats/min | BP Diastolic (Male Sprague-Dawley rats [4]; 50 μg, before the tail clamp): 112.50 ± 11.20 mmHg | BP Systolic (Male Sprague-Dawley rats [4]; 50 μg, before the tail clamp): 129.58 ± 11.73 mmHg | Heart rate (Male Sprague-Dawley rats [4]; 50 μg, before the tail clamp): 514.20 ± 62.20 beats/min | Heart rate (Male Sprague-Dawley rats [4]; [7]): 553±17 beats/min | diastolic blood pressure (Male Sprague-Dawley rats [4]; [7]): 117.00±6.35 mmHg | systolic blood pressure (Male Sprague-Dawley rats [4]; [7]): 138.00±5.77 mmHg
